Literature values as cited in patent US20250108011A1, “ORAL DOSAGE FORMS OF A […] ACTIVE ACID-LABILE SALT AND METHODS AND USES RELATED THERETO” (Rijksuniversiteit Groningen, priority 2022, published 2025).

Assays:
hypercalciuric rats = conditions: oral, ref [22]
[1] = test system: pregnant Dahl salt-sensitive rats; conditions: ref [23]
calciphylaxis = conditions: oral maintenance therapy, ref [21]

For O=S([O-])([O-])=S.[Na+].[Na+] [STS, Sodium thiosulfate], the effect on nephrolithiasis (hypercalciuric rats) is given as “reduce calcium phosphate nephrolithiasis”, the “effect on blood pressure” value [1] is given as “antihypertensive effects” and the “renal effect of oral STS as a single treatment regimen” value (hypertensive rats; oral, ref [19]) is given as “renoprotective effects”. The “effect as a single treatment regimen in hypertensive rats” value (hypertensive rats; refs [17,18]) was “reduced blood pressure, proteinuria, kidney and heart damage”, the “cardiac effect of oral STS” value (hypertensive rats; same model, ref [20]) was “Cardioprotective effects” and the “tolerability of oral administration” value (calciphylaxis) was “well tolerated with no reported side effects”.
